# Reference: paper PMC9738179, “New Nucleic Base-Tethered Trithiolato-Bridged Dinuclear Ruthenium(II)-Arene Compounds: Synthesis and Antiparasitic Activity” (Molecules, 2022)
# Several values for one entry are separate records, joined by “and”; a condition that tells them apart may be missing. Equal entries are not always repeated.
# Tests used:
# [1] = tested on: T. gondii β-gal tachyzoites; assay: Dose-response study (IC50) against T. gondii β-gal tachyzoites; format: cell-based, Toxoplasma gondii; settings: 8 serial concentrations 0.007-1 µM, 72 h
# Method: (§1) The screening cascade for the compounds was described in former studies. All compounds were prepared as 1 mM stock solutions from powder, in dimethyl sulfoxide (DMSO, Sigma, St. Louis, MO, USA). For in vitro activity and cytotoxicity assays, HFF were seeded at 5 × 10^3/well and allowed to grow to confluence in phenol-red free culture medium at 37 °C and 5% CO2. T. gondii tachyzoites were released from host cells, and HFF monolayers were infected with freshly isolated parasites (1 × 10^3/well), and compounds were added concomitantly with infection.
# For the dose-response study (IC50 values), measurements for T. gondii β-gal were performed. The selected compounds were added concomitantly with infection in 8 serial concentrations 0.007, 0.01, 0.03, 0.06, 0.12, 0.25, 0.5, and 1 μM.
# (§2) To measure the activity of the tested compound on T. gondii β-gal parasites, after a period of 72 h of culture at 37 °C/5% CO2, the culture medium was aspirated, and cells were permeabilized by adding 90 μL PBS (phosphate buffered saline) with 0.05% Triton X-100. Next, 10 μL of 5 mM chlorophenolred-β-D-galactopyranoside (CPRG; Roche Diagnostics, Rotkreuz, Switzerland, substrate for the β-galactosidase) in PBS were added. Release of chlorophenol red was measured at 570 nm using an EnSpire® multimode plate reader (PerkinElmer, Inc., Waltham, MA, USA). A 100% proliferation of T. gondii β-gal was assigned to control parasites treated only with DMSO. For the primary screening at 0.1 and 1 μM, the activity was measured as the release of chlorophenol red over time and was calculated as percentage from the respective DMSO treated control, which represented 100% of T. gondii β-gal growth.
# For the IC50 assays, the activity measured as the release of chlorophenol red over time was proportional to the number of live parasites down to 50 per well as determined in pilot assays. IC50 values were calculated after the logit-log-transformation of relative growth and subsequent regression analysis. All calculations were performed using the corresponding software tool contained in the Excel software package (Microsoft, Redmond, WA, USA).
# [2] = tested on: T. gondii β-gal tachyzoites; assay: Primary screening: T. gondii β-gal proliferation in HFF monolayers at 0.1 and 1 µM (CPRG readout); format: cell-based, Toxoplasma gondii; settings: tachyzoites cultured in HFF, 72 h, relative to DMSO control
# Method: as §1
# In the primary screening, HFF monolayers infected with T. gondii β-gal were treated with 0.1 and 1 µM of each compound, or the corresponding concentration of DMSO (0.01 or 0.1%, respectively) as controls and were incubated for 72 h at 37 °C/5% CO2 as previously described.
# as §2
# [3] = tested on: human foreskin fibroblasts (HFF); assay: Cytotoxicity in non-infected HFF by alamarBlue assay; format: cell-based
# Method: as §1
# Cytotoxicity assays using uninfected confluent HFF host cells were performed by the alamarBlue assay as previously reported. Confluent HFF monolayers in 96 well-plates were exposed to 0.1, 1, and 2.5 μM of each compound. Non-treated HFF as well as DMSO controls (0.01%, 0.1%, and 0.25%) were included. After 72 h of incubation at 37 °C/5% CO2, the medium was removed, and the plates were washed once with PBS. Resazurin suspended in PBS to a final concentration of 0.01 g/L was added to each well (200 μL/well). Fluorescence was measured at excitation wavelength 530 nm and emission wavelength […] using an EnSpire® multimode plate reader (PerkinElmer, Inc, Waltham, MA, USA). The cytotoxicity values were calculated as percentage of the respective DMSO control, which represented 100% of HFF viability.
# [4] = 0.1 µM, non-infected HFF, 72 h, relative to DMSO control, triplicate
# [5] = 2.5 µM, control 0.25% DMSO = 100%, six replicates
Structure (SMILES),IC50 [1] [µM],T. gondii β-gal Growth (%) ([2]; 0.1 µM),T. gondii β-gal Growth (%) ([2]; 1 µM),"HFF Viability (%) [3, 4] [%]","HFF Viability (%) [3, 5]",HFF Viability (%) ([3]; 0.1 µM),HFF Viability (%) ([3]; 1 µM),HFF Viability (%) ([3]; 2.5 µM),"HFF Viability (%) ([3]; 1 µM, non-infected HFF, 72 h, relative to DMSO control, triplicate)"
C#CCCCC(=O)Nc1ccc([S+]2[Ru-]3[S+](Cc4ccc(C(C)(C)C)cc4)[Ru-]2[S+]3Cc2ccc(C(C)(C)C)cc2)cc1.Cc1ccc(C(C)C)cc1.Cc1ccc(C(C)C)cc1.[Cl-] (centres unmarked) [Compound 5],0.038,21 ± 2,0 ± 0,101 ± 0,34%,–,–,–,–
C#Cc1ccc(C(=O)Nc2ccc([S+]3[Ru-]4[S+](Cc5ccc(C(C)(C)C)cc5)[Ru-]3[S+]4Cc3ccc(C(C)(C)C)cc3)cc2)cc1.Cc1ccc(C(C)C)cc1.Cc1ccc(C(C)C)cc1.[Cl-] (centres unmarked) [Compound 6],0.288,112 ± 1,6 ± 1,95 ± 1,17%,–,–,–,–
C#CCOC(=O)Cc1ccc([S+]2[Ru-]3[S+](Cc4ccc(C(C)(C)C)cc4)[Ru-]2[S+]3Cc2ccc(C(C)(C)C)cc2)cc1.Cc1ccc(C(C)C)cc1.Cc1ccc(C(C)C)cc1.[Cl-] (centres unmarked) [Compound 7],0.289,19 ± 1,0 ± 0,100 ± 2,51%,–,–,–,–
CC(C)(C)c1ccc(C[S+]2[Ru-]3[S+](Cc4ccc(C(C)(C)C)cc4)[Ru-]2[S+]3c2ccccc2CN=[N+]=[N-])cc1.Cc1ccc(C(C)C)cc1.Cc1ccc(C(C)C)cc1.[Cl-] (centres unmarked) [Compound 9],0.048,–,1 ± 1,96 ± 1,11%,–,–,–,–
CC(C)(C)c1ccc(C[S+]2[Ru-]3[S+](Cc4ccc(C(C)(C)C)cc4)[Ru-]2[S+]3c2ccc(N=[N+]=[N-])cc2)cc1.Cc1ccc(C(C)C)cc1.Cc1ccc(C(C)C)cc1.[Cl-] (centres unmarked) [Compound 10],0.064,–,1 ± 0,94 ± 1,38%,–,–,–,–
"Nc1ncnc2c1ncn2CCO [Compound 14A, 9-(2-hydroxyethyl)adenine]",–,104 ± 2,75 ± 11,–,–,–,–,–,–
CC(C)(C)c1ccc(C[S+]2[Ru-]3[S+](Cc4ccc(C(C)(C)C)cc4)[Ru-]2[S+]3c2ccccc2Cn2cc(Cn3ccc(=O)[nH]c3=O)nn2)cc1.Cc1ccc(C(C)C)cc1.Cc1ccc(C(C)C)cc1.[Cl-] (centres unmarked) [Compound 19],0.46,–,–,93 ± 2,50%,–,–,–,–
Cc1ccc(C(C)C)cc1.Cc1ccc(C(C)C)cc1.Cc1cn(Cc2cn(Cc3ccccc3[S+]3[Ru-]4[S+](Cc5ccc(C(C)(C)C)cc5)[Ru-]3[S+]4Cc3ccc(C(C)(C)C)cc3)nn2)c(=O)[nH]c1=O.[Cl-] (centres unmarked) [Compound 20],0.363,102 ± 0,1 ± 0,–,–,100 ± 2,71 ± 2,39,–
CC(C)(C)c1ccc(C[S]2[Ru]3[S](Cc4ccc(C(C)(C)C)cc4)[Ru+]2[S]3c2ccccc2Cn2cc(Cn3ccc(N)nc3=O)nn2)cc1.Cc1ccc(C(C)C)cc1.Cc1ccc(C(C)C)cc1.[Cl-] [Compound 21],0.046,–,0 ± 0,–,–,109 ± 2,89 ± 1,38,–
CC(C)(C)c1ccc(C[S]2[Ru]3[S](Cc4ccc(C(C)(C)C)cc4)[Ru+]2[S]3c2ccccc2Cn2cc(Cn3cnc4c(N)ncnc43)nn2)cc1.Cc1ccc(C(C)C)cc1.Cc1ccc(C(C)C)cc1.[Cl-] [Compound 22],0.108,79 ± 3,1 ± 0,–,–,102 ± 0,77 ± 2,52,–
CC(C)(C)c1ccc(C[S]2[Ru]3[S](Cc4ccc(C(C)(C)C)cc4)[Ru+]2[S]3c2ccc(-n3cc(Cn4ccc(=O)[nH]c4=O)nn3)cc2)cc1.Cc1ccc(C(C)C)cc1.Cc1ccc(C(C)C)cc1.[Cl-] [Compound 23],0.426,–,–,100 ± 1,64%,–,–,–,–
CC(C)(C)c1ccc(C[S]2[Ru]3[S](Cc4ccc(C(C)(C)C)cc4)[Ru+]2[S]3c2ccc(-n3cc(Cn4ccc(N)nc4=O)nn3)cc2)cc1.Cc1ccc(C(C)C)cc1.Cc1ccc(C(C)C)cc1.[Cl-] [Compound 25],–,82 ± 6,–,–,–,94 ± 9,91 ± 8,–,–
CC(C)(C)c1ccc(C[S]2[Ru]3[S](Cc4ccc(C(C)(C)C)cc4)[Ru+]2[S]3c2ccc(-n3cc(Cn4cnc5c(N)ncnc54)nn3)cc2)cc1.Cc1ccc(C(C)C)cc1.Cc1ccc(C(C)C)cc1.[Cl-] [Compound 26],0.178,109 ± 6,–,–,–,109 ± 2,76 ± 0,45,–
NC(=O)c1ccc(-c2cn(Cc3cc(=O)[nH]c(=O)[nH]3)nn2)cc1 [Compound 29],–,–,–,–,–,101 ± 1,–,–,–
CC(C)(C)c1ccc(C[S]2[Ru]3[S](Cc4ccc(C(C)(C)C)cc4)[Ru+]2[S]3c2ccc(CC(=O)OCc3cn(Cc4cc(=O)[nH]c(=O)[nH]4)nn3)cc2)cc1.Cc1ccc(C(C)C)cc1.Cc1ccc(C(C)C)cc1.[Cl-] [Compound 30],0.659,–,–,114 ± 0,97%,–,–,–,–
CC(C)(C)c1ccc(C[S]2[Ru]3[S](Cc4ccc(C(C)(C)C)cc4)[Ru+]2[S]3c2ccc(CC(=O)NCc3cn(Cc4cc(=O)[nH]c(=O)[nH]4)nn3)cc2)cc1.Cc1ccc(C(C)C)cc1.Cc1ccc(C(C)C)cc1.[Cl-] [Compound 31],–,–,–,–,–,99 ± 3,–,–,–
CC(C)(C)c1ccc(C[S]2[Ru]3[S](Cc4ccc(C(C)(C)C)cc4)[Ru+]2[S]3c2ccccc2Cn2cc(-c3ccccc3)nn2)cc1.Cc1ccc(C(C)C)cc1.Cc1ccc(C(C)C)cc1.[Cl-] [Compound 34],0.092,7 ± 0,1 ± 0,96 ± 1,highly toxic and 3%,–,–,–,70 ± 1
CC(C)(C)c1ccc(C[S]2[Ru]3[S](Cc4ccc(C(C)(C)C)cc4)[Ru+]2[S]3c2ccccc2Cn2cc(-c3ccc(CO)cc3)nn2)cc1.Cc1ccc(C(C)C)cc1.Cc1ccc(C(C)C)cc1.[Cl-] [Compound 35],–,1 ± 0,0 ± 0,–,–,89 ± 0,–,–,–
CC(C)(C)c1ccc(C[S]2[Ru]3[S](Cc4ccc(C(C)(C)C)cc4)[Ru+]2[S]3c2ccccc2Cn2cc(CO)nn2)cc1.Cc1ccc(C(C)C)cc1.Cc1ccc(C(C)C)cc1.[Cl-] [Compound 36],0.111,–,0 ± 0,115 ± 1,low toxicity and medium toxicity and 77%,–,–,–,–
